{
  "source": "patent US4052403A",
  "about": "“2-Hydroxyimino-1,2,3,4,6,7-hexahydro-11bH-benzo [a] quinolisine derivatives” (EGYT Gyogyszervegyeszeti Gyar, priority 1975, dated 1977)",
  "key": {"[1]": {"tested_on": "amphetamine-provoked hypermotility", "assay": "inhibition of amphetamine-provoked hypermotility (psychosedative effect)", "type": "in vivo", "conditions": "mice, amphetamine 3 mg/kg s.c. simultaneously, control = 100%", "experimental": "This conclusion was based upon experimentation with mice by measuring their inhibition ability exerted on amphetamine-provoked hypermotility. the animals so tested were treated subcutaneously with 3 mg/kg of amphetamine (α-methyl-phenethylamine)while simultaneously administering the novel compound of formula (I) herein. A control test was run in which no psychosedative agent was used. The extent of hypermotility observed in the control group treated only with 3 mg/kg of amphetamine was regarded as 100%, and the percentage of inhibition observed in the test groups was related to this value."}, "waking cats": {"tested_on": "waking cats", "assay": "behavioural effects in waking cats, compared with scopolamine", "type": "in vivo", "conditions": "for akinesia / standing position / behavioural effects in cats (first effects) / paralysis: s.c. 100 mg/kg isomer \"b\", 150 mg/kg scopolamine; for paralysis: 30 minutes after administration", "experimental": "Accordingly, the effects of this \"b\" iosmer were compared directly with scopolamine by the use of a subcutaneous dosage of 100 mg/kg of the former and 150 mg/kg of the latter."}, "waking dogs": {"tested_on": "waking dogs", "assay": "behavioural effects in waking dogs, compared with scopolamine", "type": "in vivo"}, "[2]": {"tested_on": "analgesic effect of morphine", "assay": "potentiation of the analgesic effect of morphine", "conditions": "in vivo"}, "[3]": {"tested_on": "narcosis provoked by hexobarbital", "assay": "potentiation of the narcosis provoked by hexobarbital", "conditions": "in vivo"}, "[4]": {"assay": "acute toxicity, subcutaneous administration", "conditions": "mouse, in vivo, sc, mice", "experimental": "The acute toxicities of the new compounds having the general formula (I) were measured on mice, under subcutaneous administration."}, "[5]": {"assay": "anticholinergic / atropine-like activity", "conditions": "in vivo"}, "[6]": {"conditions": "well-known, cited from earlier work"}},
  "note": "Where “and” joins values, the source holds several entries; their conditions need not be identical. Equal values may be shown once. Entries after “also recorded” stand apart in the source; their conditions may differ.",
  "data": [
    {"molecule": "COc1cc2c(cc1OC)C1CC(=NO)C3CCCCC3N1CC2", "note": "(stereo not shown) [2-Hydroxyimino-3,4-cyclohexano-9,10-dimethoxy-1,2,3,4,6,7-he] [2-Hydroxyimino-3,4-cyclohexano-9,10-dimethoxy-1,2,3,4,6,7-hexahydro-11bH-benzo[a]quinolisine]", "values": [
      {"measurement": "Inhibition (of amphetamine-provoked hypermotility)", "setting": "[1]; 20 mg/kg s.c.", "value": 66, "unit": "%"},
      {"measurement": "Inhibition (of amphetamine-provoked hypermotility)", "setting": "[1]; 100 mg/kg s.c.", "value": 33, "unit": "%"},
      {"measurement": "akinesia / standing position", "setting": "waking cats; cats", "value": "more complete akinesia than scopolamine; also recorded: could not be brought to a standing position, their limbs immediately sliding apart although the carriage of their heads remained stationary"},
      {"measurement": "behavioural effects in cats (first effects)", "setting": "waking cats; cats", "value": "restlessness coupled with hallucinations of the same type and degree"},
      {"measurement": "paralysis", "setting": "waking cats; cats", "value": "all animals were paralyzed"},
      {"measurement": "response to capsaicine dropped into the eyes", "setting": "waking cats; cats, s.c., capsaicine into eyes", "value": "long-lasting blepharospasm and mewing"},
      {"measurement": "response to painful stimuli", "setting": "waking cats; cats, s.c., painful stimuli", "value": "strong mewing response"},
      {"measurement": "symptoms in waking cats compared with scopolamine", "setting": "waking cats; waking cats", "value": "symptons similar to those os scopolamine"},
      {"measurement": "symptoms in waking dogs compared with scopolamine", "setting": "waking dogs", "value": "symptons similar to those os scopolamine"},
      {"measurement": "awakening upon smell, slight noise and tactile stimuli", "setting": "waking dogs; 10 mg/kg s.c.", "value": "not a narcotic effect, for the dogs were awakened readily upon smell stimuli related to food or slight noice and tactile stimuli"},
      {"measurement": "behavior after awakening", "setting": "waking dogs; 10 mg/kg s.c.", "value": "normal behavior after awakening"},
      {"measurement": "behavioural effects in waking dogs", "setting": "waking dogs; 10 mg/kg s.c.", "value": "remarkable quietness and the animals fell asleep"},
      {"measurement": "potentiation of the analgesic effect of morphine", "setting": "[2]", "value": "did not potentiate the analgesic effect of morphine"},
      {"measurement": "potentiation of the narcosis provoked by hexobarbital", "setting": "[3]", "value": "nor did it potentiate the narcosis provoked by hexobarbital"}
    ]},
    {"molecule": "COc1cc2c(cc1OC)C1CC(=NO)C3CCCC3N1CC2", "note": "(stereo not shown) [2-Hydroxyimino-3,4-cyclopentano-9,10-dimethoxy-1,2,3,4,6,7-hexahydro-11bH-benzo[a]quinolisine]", "values": [
      {"measurement": "LD50", "setting": "[4]", "value": "> 500", "unit": "mg/kg"}
    ]},
    {"molecule": "CCOc1cc2c(cc1OCC)C1CC(=NO)C3CCCCC3N1CC2", "note": "(stereo not shown) [2-Hydroxyimino-3,4-cyclohexano-9,10-diethoxy-1,2,3,4,6,7,-hexahydro-11bH-benzo[a]quinolisine]", "values": [
      {"measurement": "Inhibition (of amphetamine-provoked hypermotility)", "setting": "[1]; 100 mg/kg s.c.", "value": 85, "unit": "%"},
      {"measurement": "LD50", "setting": "[4]", "value": "> 300", "unit": "mg/kg"}
    ]},
    {"molecule": "CN1[C@@H]2C[C@@H](OC(=O)[C@H](CO)c3ccccc3)C[C@H]1[C@@H]1O[C@@H]12", "note": "[scopolamine]", "values": [
      {"measurement": "akinesia / standing position", "setting": "waking cats; cats", "value": "remained in a standing position"},
      {"measurement": "behavioural effects in cats (first effects)", "setting": "waking cats; cats", "value": "restlessness coupled with hallucinations of the same type and degree"},
      {"measurement": "paralysis", "setting": "waking cats; cats", "value": "all animals were paralyzed"},
      {"measurement": "anticholinerg activity", "setting": "[5]", "value": "did not exert anticholinerg activity"},
      {"measurement": "atropine-like effect", "setting": "[5]", "value": "marked atropine-like effect"},
      {"measurement": "therapeutic psychosedative effects", "setting": "[6]; small dosages", "value": "therapeutic psychosedative effects"},
      {"measurement": "side effects", "setting": "[6]", "value": "strong atropine-like parasympatholytic side effects"}
    ]},
    {"molecule": "COc1cc2c(cc1OC)C1CC(=NO)C3CCCC3N1CC2", "note": "(stereo not shown) [2-Hydroxyimino-3,4-cyclopentano-9,10-dimethoxy-1,2,3,4,6,7-h] [2-Hydroxyimino-3,4-cyclopentano-9,10-dimethoxy-1,2,3,4,6,7-hexahydro-11bH-benzo[a]quinolisine]", "values": [
      {"measurement": "Inhibition (of amphetamine-provoked hypermotility)", "setting": "[1]; 100 mg/kg s.c.", "value": "40% and 61%"}
    ]}
  ]
}
